Assay: Study HDP-CDV-201: safety and tolerability (adverse events, laboratory abnormalities, discontinuations)
Format: in vivo, human (adult allogeneic HSCT recipients)
Method: Clinical Studies of HDP-CDV were performed and described in detail in the following Examples. For example, HDP-CDV-201 is a placebo-controlled, dose-escalating trial in HSCT CMV (R+) recipients, evaluating the ability of HDP-CDV to prevent or control CMV infection was carried out. Five cohorts were established in which participants or subjects received either placebo or the HDP-CDV orally, in doses ranging from 40 mg weekly (QW) to 200 mg twice weekly (BIW). Subjects who were post-HSCT were enrolled at the time of engraftment and randomized to HDP-CDV or placebo (3 to 1 ratio) and received blinded therapy until approximately 100 day post-transplantation. HDP-CDV doses were 40 mg QW, 100 mg QW, 200 mg QW, 200 mg BIW and 100 mg BIW. Escalation to the next dose was decided by the data monitoring committee after review of the safety data from the previous Cohort. Subjects who developed CMV disease or CMV infection requiring pre-emptive therapy with local standard of care were discontinued from blinded therapy and followed for 4 weeks. Subjects who completed treatment with blinded therapy were followed for 8 weeks post-therapy.
Data from Study HDP-CDV-201 also provided characterization of the safety and tolerability profile of HDP-CDV when administered for the prevention or control of CMV infection in high risk (R^+) post-HSCT adult subjects.
The Safety population (SAFETY) included all randomized subjects who took at least one dose of study treatment. This population was used to summarize safety outcomes based on the treatment actually received, in cases where a subject was treated contrary to the randomization schedule.
The safety and tolerability profile of HDP-CDV, including subject demographics and Baseline characteristics; the AE profile; and laboratory abnormalities of interest were analyzed in the cohorts followed in this investigation.
Subjects completing the treatment period received a full course of study medication; those completing the entire study attended visits through 8 weeks of follow up. Subjects who discontinued treatment may have done so for protocol specified reasons (e.g. development of clinically significant CMV infection requiring preemptive treatment with excluded anti-CMV medications) or for other reasons (e.g., withdrawal, adverse events, loss to follow-up). The disposition of subjects in Study HDP-CDV-201 during the double-blind, placebo-controlled treatment period (through Week 11) is listed by dosing Cohort in TABLE 23.
Adverse events were examined by severity to ensure that all safety signals were identified in this study population. Because of the frequency of events in HSCT recipients, particular attention was given to evaluation of Grade 3 […], 4 (severe), and 5 (fatal) adverse events.
Only those preferred terms for which at least one Grade 3 or higher event was experienced in any treatment group are listed. Cytomegalovirus-related AEs are excluded from this analysis.
HDP-CDV is a lipid conjugate of CDV. Because CDV is known to have adverse effects on renal function and bone marrow, decreased GFR and persistent neutropenia were identified as AEs of special interest. Key renal and hematological (TABLE 30) laboratory parameters were measured and listed below by Study HDP-CDV-201 treatment groups. TABLE 30 includes abnormal levels of serum creatinine, neutrophils, platelets, WBCs, and hemoglobin and includes data at Screening and during the treatment period.
A common metric for unit based dosing of medications is by weight (mg/kg). When the distribution of weights was examined for all subjects participating in the study, the median was 78 kg and the lower 25th percentile weight was approximately 65 kg, which translates to a cut-off of ˜3 mg/kg for a 200 mg total weekly dose. Based upon this approach, a cut-off of 3 mg/kg was used to assess the frequency of diarrhea and associated GI AEs reported for the subjects in Cohorts 3 or 4a (TABLE 40).

## CCCCCCCCCCCCCCCCOCCCOP(=O)(O)COC(CO)Cn1ccc(N)nc1=O (stereo not drawn) [HDP-CDV]
100 mg QW
  TEAE GGT Increased, Frequency: 1 (3.7%)
  TEAE GGT Increased, Grade 2: 1 (3.7%)
  TEAE GGT Increased, Grade 3: 0
  TEAE GGT Increased, Grade 4: 0
  TEAE GGT Increased, Grade 5: 0
  TEAE Generalized oedema, Frequency: 0
  TEAE Generalized oedema, Grade 2: 0
  TEAE Generalized oedema, Grade 3: 0
  TEAE Generalized oedema, Grade 4: 0
  TEAE Generalized oedema, Grade 5: 0
  TEAE Hyperbilirubinaemia, Frequency: 0
  TEAE Hyperbilirubinaemia, Grade 2: 0
  TEAE Hyperbilirubinaemia, Grade 3: 0
  TEAE Hyperbilirubinaemia, Grade 4: 0
  TEAE Hyperbilirubinaemia, Grade 5: 0
  TEAE Hyperglycaemia, Frequency: 1 (3.7%)
  TEAE Hyperglycaemia, Grade 2: 0
  TEAE Hyperglycaemia, Grade 3: 1 (3.7%)
  TEAE Hyperglycaemia, Grade 4: 0
  TEAE Hyperglycaemia, Grade 5: 0
  TEAE Hyperkalemia, Frequency: 1 (3.7%)
  TEAE Hyperkalemia, Grade 2: 0
  TEAE Hyperkalemia, Grade 3: 1 (3.7%)
  TEAE Hyperkalemia, Grade 4: 0
  TEAE Hyperkalemia, Grade 5: 0
  TEAE Hypocalcaemia, Frequency: 0
  TEAE Hypocalcaemia, Grade 2: 0
  TEAE Hypocalcaemia, Grade 3: 0
  TEAE Hypocalcaemia, Grade 4: 0
  TEAE Hypocalcaemia, Grade 5: 0
  TEAE Hypokalaemia, Frequency: 2 (7.4%)
  TEAE Hypokalaemia, Grade 2: 0
  TEAE Hypokalaemia, Grade 3: 0
  TEAE Hypokalaemia, Grade 4: 0
  TEAE Hypokalaemia, Grade 5: 0
  TEAE Hyponatraemia, Frequency: 1 (3.7%)
  TEAE Hyponatraemia, Grade 2: 0
  TEAE Hyponatraemia, Grade 3: 0
  TEAE Hyponatraemia, Grade 4: 0
  TEAE Hyponatraemia, Grade 5: 0
  TEAE LFT Abnormal, Frequency: 1 (3.7%)
  TEAE LFT Abnormal, Grade 2: 0
  TEAE LFT Abnormal, Grade 3: 0
  TEAE LFT Abnormal, Grade 4: 0
  TEAE LFT Abnormal, Grade 5: 0
  TEAE Leukocytosis, Frequency: 0
  TEAE Leukocytosis, Grade 2: 0
  TEAE Leukocytosis, Grade 3: 0
  TEAE Leukocytosis, Grade 4: 0
  TEAE Leukocytosis, Grade 5: 0
  TEAE Nausea, Frequency: 5 (18.5%)
  TEAE Nausea, Grade 2: 1 (3.7%)
  TEAE Nausea, Grade 3: 0
  TEAE Nausea, Grade 4: 0
  TEAE Nausea, Grade 5: 0
  TEAE Neutropenia, Frequency: 4 (14.8%)
  TEAE Neutropenia, Grade 2: 1 (3.7%)
  TEAE Neutropenia, Grade 3: 2 (7.4%)
  TEAE Neutropenia, Grade 4: 1 (3.7%)
  TEAE Neutropenia, Grade 5: 0
  TEAE Pneumonia, Frequency: 2 (7.4%)
  TEAE Pneumonia, Grade 2: 0
  TEAE Pneumonia, Grade 3: 1 (3.7%)
  TEAE Pneumonia, Grade 4: 1 (3.7%)
  TEAE Pneumonia, Grade 5: 0
  TEAE Pyrexia, Frequency: 1 (3.7%)
  TEAE Pyrexia, Grade 2: 0
  TEAE Pyrexia, Grade 3: 0
  TEAE Pyrexia, Grade 4: 0
  TEAE Pyrexia, Grade 5: 0
  TEAE Renal Failure, Frequency: 2 (7.4%)
  TEAE Renal Failure, Grade 2: 2 (7.4%)
  TEAE Renal Failure, Grade 3: 0
  TEAE Renal Failure, Grade 4: 0
  TEAE Renal Failure, Grade 5: 0
  TEAE Staphylococcal Bacteremia, Frequency: 1 (3.7%)
  TEAE Staphylococcal Bacteremia, Grade 2: 0
  TEAE Staphylococcal Bacteremia, Grade 3: 1 (3.7%)
  TEAE Staphylococcal Bacteremia, Grade 4: 0
  TEAE Staphylococcal Bacteremia, Grade 5: 0
  TEAE Thrombocytopenia, Frequency: 3 (11.1%)
  TEAE Thrombocytopenia, Grade 2: 1 (3.7%)
  TEAE Thrombocytopenia, Grade 3: 1 (3.7%)
  TEAE Thrombocytopenia, Grade 4: 1 (3.7%)
  TEAE Thrombocytopenia, Grade 5: 0
  TEAE Vomiting, Frequency: 6 (22.2%)
  TEAE Vomiting, Grade 2: 2 (7.4%)
  TEAE Vomiting, Grade 3: 0
  TEAE Vomiting, Grade 4: 0
  TEAE Vomiting, Grade 5: 0
100 mg QW, n = 27
  Subjects Reporting Diarrhea as an AE: 8 (29.6%)
100 mg QW, active treatment period
  Discontinuation: Death: 0 Subject n (%)
100 mg QW, active treatment period through Week 11
  Discontinuation: Adverse event: 3 (11.1%) Subject n (%)
100 mg weekly
  subjects who discontinued study medications: 33%
200 mg BIW
  TEAE ALT increased, Frequency: 10 (33.3%)
  TEAE ALT increased, Grade 2: 4 (13.3%)
  TEAE ALT increased, Grade 3: 2 (6.7%)
  TEAE ALT increased, Grade 4: 0
  TEAE ALT increased, Grade 5: 0
  TEAE AML, Recurrent, Frequency: 0
  TEAE AML, Recurrent, Grade 2: 0
  TEAE AML, Recurrent, Grade 3: 0
  TEAE AML, Recurrent, Grade 4: 0
  TEAE AML, Recurrent, Grade 5: 0
  TEAE AST increased, Frequency: 7 (23.3%)
  TEAE AST increased, Grade 2: 3 (10.0%)
  TEAE AST increased, Grade 3: 0
  TEAE AST increased, Grade 4: 0
  TEAE AST increased, Grade 5: 0
  TEAE Abdominal pain, Frequency: 11 (36.7%)
  TEAE Abdominal pain, Grade 2: 8 (26.7%)

From US20140303092A1 (CHIMERIX, INC., priority 2011, published 2014)
